27 compounds from patent publication US12653814B2, “Benzimidazolone-based cinnamamide derivative as TRPV1 antagonist and pharmaceutical composition for treatment or prevention of pain containing same as active ingredient” (JMACKEM CO., LTD, priority 2020, dated 2026) can be followed below.

Structures are written as SMILES.

Assay [1] deals with T1, human TRPV1 (hTRPV1) (Homo sapiens, UniProt Q8NER1).
T1 construct: host or cells: HEK (PrecisION hTRPV1-HEK recombinant cell line)
Put plainly: Ca2+ influx assay, antagonism against capsaicin in hTRPV1-HEK recombinant cells. Type of assay: cell-based. The conditions noted are these: capsaicin 10 nM as activator, Fluo4-NW fluorescence, read-out: hTRPV1 IC50 [cap].

For assay [2], the target named is T1, human TRPV1 (hTRPV1). The assay is described as follows: Evaluation of human pH inhibitory activity in hTRPV1-HEK recombinant cells. The settings on record: inhibition of activation at final pH 6.0, test substance 3 μM. Type of assay: cell-based. How it is done: Evaluation of Human pH Inhibitory Activity
PrecisION™ hTRPV1-HEK recombinant cells (CYL3063) were purchased from Millipore and used. After culturing the above cells under the conditions of 37° C. and 5% CO2, the cells were inoculated in a 96-well plate at the density of 5×10^4 cells/well, followed by culture for 16 hours. Then, the medium was removed and 100 uL of a staining solution was put into each well, followed by culture for 30 minutes under the conditions of 37° C. and 5% CO2. After 30 minutes, all of the existing staining solution was removed and replaced with 100 uL of HBSS. Thereafter, the cells were acclimatized to room temperature for 15 minutes, and the test substances (example compounds and comparative example compounds of the present invention) were added to each well, followed by culture at room temperature for 15 minutes. Then, the final pH was adjusted to 6.0 using MES, and fluorescence was measured (ex485/em535). In the pH assay, the efficacy of the drug was evaluated using BCTC as a TRPV1 antagonist.

T1 sequence (Q8NER1 whole entry): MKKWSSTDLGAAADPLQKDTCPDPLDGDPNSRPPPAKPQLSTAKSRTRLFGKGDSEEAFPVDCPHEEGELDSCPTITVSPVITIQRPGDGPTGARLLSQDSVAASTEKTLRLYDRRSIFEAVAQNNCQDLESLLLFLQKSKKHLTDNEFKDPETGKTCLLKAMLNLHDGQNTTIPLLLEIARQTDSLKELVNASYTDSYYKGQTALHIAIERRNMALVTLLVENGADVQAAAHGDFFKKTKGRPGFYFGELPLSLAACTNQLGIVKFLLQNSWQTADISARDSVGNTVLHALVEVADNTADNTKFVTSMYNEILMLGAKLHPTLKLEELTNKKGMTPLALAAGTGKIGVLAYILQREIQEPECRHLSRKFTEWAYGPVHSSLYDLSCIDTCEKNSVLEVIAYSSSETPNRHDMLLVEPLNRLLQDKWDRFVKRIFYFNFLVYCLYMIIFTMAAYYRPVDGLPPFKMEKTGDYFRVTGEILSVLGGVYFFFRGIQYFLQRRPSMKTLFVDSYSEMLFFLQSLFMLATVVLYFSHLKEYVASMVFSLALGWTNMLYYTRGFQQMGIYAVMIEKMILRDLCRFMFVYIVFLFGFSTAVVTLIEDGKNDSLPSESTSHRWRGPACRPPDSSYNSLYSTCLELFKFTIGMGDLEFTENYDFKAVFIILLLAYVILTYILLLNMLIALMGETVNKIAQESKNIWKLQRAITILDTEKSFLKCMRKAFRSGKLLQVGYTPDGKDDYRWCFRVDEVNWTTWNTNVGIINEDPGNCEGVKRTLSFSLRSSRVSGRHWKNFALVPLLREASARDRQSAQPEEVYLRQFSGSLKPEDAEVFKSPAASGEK

On to `CC1CCN(c2nc(C(F)(F)F)ccc2/C=C/C(=O)Nc2cccc3[nH]c(=O)[nH]c23)CC1` [Example 1, (E)-3-(2-(4-methylpiperidin-1-yl)-6-(trifluoromethyl)pyridin-3-yl)-N-(2-oxo-2,3-dihydro-1H-benzo[d]imidazol-4-yl)acrylamide], for which the IC50 in assay [1] was found to be 0.037 µM. The “hTRPV1 pH (%, 3 μM)” value in assay [2] turned out to be 78.62%. On to `CCC1CCN(c2nc(C(F)(F)F)ccc2/C=C/C(=O)Nc2cccc3[nH]c(=O)[nH]c23)CC1` [Example 2, (E)-3-(2-(4-ethylpiperidin-1-yl)-6-(trifluoromethyl)pyridin-3-yl)-N-(2-oxo-2,3-dihydro-1H-benzo[d]imidazol-4-yl)acrylamide], for which, in assay [1], the IC50 came out at 0.0288 µM. The “hTRPV1 pH (%, 3 μM)” value in assay [2] turned out to be 86.72%. Consider `O=C(/C=C/c1ccc(C(F)(F)F)nc1N1CCOCC1)Nc1cccc2[nH]c(=O)[nH]c12` [Example 5, (E)-3-(2-morpholino-6-(trifluoromethyl)pyridin-3-yl)-N-(2-oxo-2,3-dihydro-1H-benzo[d]imidazol-4-yl)acrylamide], for which the IC50 in assay [1] was found to be 0.0163 µM. Moreover, in assay [2], the “hTRPV1 pH (%, 3 μM)” value was 94.79%. For `CCN(CC)c1nc(C(F)(F)F)ccc1/C=C/C(=O)Nc1cccc2[nH]c(=O)[nH]c12` [Example 6, (E)-3-(2-(diethylamino)-6-(trifluoromethyl)pyridin-3-yl)-N-(2-oxo-2,3-dihydro-1H-benzo[d]imidazol-4-yl)acrylamide], the IC50 in assay [1] turned out to be 0.0107 µM. In addition, in assay [2], the “hTRPV1 pH (%, 3 μM)” value is 76.92%. The corresponding values for `CCCN(CCC)c1nc(C(F)(F)F)ccc1/C=C/C(=O)Nc1cccc2[nH]c(=O)[nH]c12` [Example 7, (E)-3-(2-(dipropylamino)-6-(trifluoromethyl)pyridin-3-yl)-N-(2-oxo-2,3-dihydro-1H-benzo[d]imidazol-4-yl)acrylamide] are 0.0233 µM and 89.87%. On the same counts, the results for `CCCCOc1nc(C(F)(F)F)ccc1/C=C/C(=O)Nc1cccc2[nH]c(=O)[nH]c12` [Example 8, (E)-3-(2-butoxy-6-(trifluoromethyl)pyridin-3-yl)-N-(2-oxo-2,3-dihydro-1H-benzo[d]imidazol-4-yl)acrylamide] are 0.0273 µM and 81.24%. Take `CCCCCCOc1nc(C(F)(F)F)ccc1/C=C/C(=O)Nc1cccc2[nH]c(=O)[nH]c12` [Example 9, (E)-3-(2-(hexyloxy)-6-(trifluoromethyl)pyridin-3-yl)-N-(2-oxo-2,3-dihydro-1H-benzo[d]imidazol-4-yl)acrylamide]: the IC50 in assay [1] was over 0.05 µM. Turning to `O=C(/C=C/c1ccc(C(F)(F)F)nc1OC1CCC1)Nc1cccc2[nH]c(=O)[nH]c12` [Example 11, (E)-3-(2-cyclobutoxy-6-(trifluoromethyl)pyridin-3-yl)-N-(2-oxo-2,3-dihydro-1H-benzo[d]imidazol-4-yl)acrylamide], in assay [1], the half-maximal inhibitory concentration (IC50) amounted to 0.0378 µM. In assay [2], the “hTRPV1 pH (%, 3 μM)” value amounted to 88.23%. Turning to `O=C(/C=C/c1ccc(C(F)(F)F)nc1OC1CCCC1)Nc1cccc2[nH]c(=O)[nH]c12` [Example 12, (E)-3-(2-(cyclopentyloxy)-6-(trifluoromethyl)pyridin-3-yl)-N-(2-oxo-2,3-dihydro-1H-benzo[d]imidazol-4-yl)acrylamide], the IC50 in assay [1] was 0.0315 µM. Moreover, in assay [2], the “hTRPV1 pH (%, 3 μM)” value was determined as 81.25%.

In the case of `O=C(/C=C/c1ccc(C(F)(F)F)nc1OCC(F)(F)F)Nc1cccc2[nH]c(=O)[nH]c12` [Example 14, (E)-N-(2-oxo-2,3-dihydro-1H-benzo[d]imidazol-4-yl)-3-(2-(2,2,2-trifluoroethoxy)-6-(trifluoromethyl)pyridin-3-yl)acrylamide], the IC50 in assay [1] is 0.0345 µM. In assay [2], the “hTRPV1 pH (%, 3 μM)” value is on record as 94.03%. Consider `CC(C)(C)COc1nc(C(F)(F)F)ccc1/C=C/C(=O)Nc1cccc2[nH]c(=O)[nH]c12` [Example 15, (E)-3-(2-(neopentyloxy)-6-(trifluoromethyl)pyridin-3-yl)-N-(2-oxo-2,3-dihydro-1H-benzo[d]imidazol-4-yl)acrylamide], for which, in assay [1], the IC50 is 0.202 µM. For the compound `O=C(/C=C/c1ccc(C2CC2)nc1OCC1CC1)Nc1cccc2[nH]c(=O)[nH]c12` [Example 18, (E)-3-(6-cyclopropyl-2-(cyclopropylmethoxy)pyridin-3-yl)-N-(2-oxo-2,3-dihydro-1H-benzo[d]imidazol-4-yl)acrylamide], the IC50 in assay [1] worked out at 0.117 µM.

Consider `CC(C)c1ccc(/C=C/C(=O)Nc2cccc3[nH]c(=O)[nH]c23)c(OCC2CC2)n1` [Example 19, (E)-3-(2-(cyclopropylmethoxy)-6-isopropylpyridin-3-yl)-N-(2-oxo-2,3-dihydro-1H-benzo[d]imidazol-4-yl)acrylamide], for which, in assay [1], the IC50 worked out at 0.41 µM. On the same count and under the same terms, the figure for `CC(C)(C)c1ccc(/C=C/C(=O)Nc2cccc3[nH]c(=O)[nH]c23)c(OCC2CC2)n1` [Example 23, (E)-3-(6-(tert-butyl)-2-(cyclopropylmethoxy)pyridin-3-yl)-N-(2-oxo-2,3-dihydro-1H-benzo[d]imidazol-4-yl)acrylamide] is 0.217 µM. For the compound `O=C(/C=C/c1ccc(C(F)(F)F)nc1SCC1CC1)Nc1cccc2[nH]c(=O)[nH]c12` [Example 28, (E)-3-(2-((cyclopropylmethyl)thio)-6-(trifluoromethyl)pyridin-3-yl)-N-(2-oxo-2,3-dihydro-1H-benzo[d]imidazol-4-yl)acrylamide], the 50% inhibitory concentration (IC50) in assay [1] was over 0.1 µM. Still for that read-out and setting: the figure for `O=C(/C=C/c1ccc(C(F)(F)F)nc1SC1CCCCC1)Nc1cccc2[nH]c(=O)[nH]c12` [Example 29, (E)-3-(2-(cyclohexylthio)-6-(trifluoromethyl)pyridin-3-yl)-N-(2-oxo-2,3-dihydro-1H-benzo[d]imidazol-4-yl)acrylamide] is over 0.1 µM. The same measure, in the same setting: the same measure for `CC(C)(C)CCc1nc(C(F)(F)F)ccc1/C=C/C(=O)Nc1cccc2[nH]c(=O)[nH]c12` [Example 40, (E)-3-(2-(3,3-dimethylbutyl)-6-(trifluoromethyl)pyridin-3-yl)-N-(2-oxo-2,3-dihydro-1H-benzo[d]imidazol-4-yl)acrylamide]: 0.178 µM; for `O=C(/C=C/c1ccc(C(F)(F)F)nc1C1CCCC1)Nc1cccc2[nH]c(=O)[nH]c12` [Example 41, (E)-3-(2-cyclopentyl-6-(trifluoromethyl)pyridin-3-yl)-N-(2-oxo-2,3-dihydro-1H-benzo[d]imidazol-4-yl)acrylamide]: 0.123 µM; for `CC(C)c1cc(/C=C/C(=O)Nc2cccc3[nH]c(=O)[nH]c23)n(-c2cccc(Cl)c2)n1` [Example 51, (E)-3-(1-(3-chlorophenyl)-3-isopropyl-1H-pyrazol-5-yl)-N-(2-oxo-2,3-dihydro-1H-benzo[d]imidazol-4-yl)acrylamide]: over 0.16 µM.

Consider `CC1(c2cc(/C=C/C(=O)Nc3cccc4[nH]c(=O)[nH]c34)n(-c3cccc(Cl)c3)n2)CC1` [Example 52, (E)-3-(1-(3-chlorophenyl)-3-(1-methylcyclopropyl)-1H-pyrazol-5-yl)-N-(2-oxo-2,3-dihydro-1H-benzo[d]imidazol-4-yl)acrylamide], for which the IC50 in assay [1] was over 0.16 µM. Still for that read-out and setting: the same measure for `CC(C)c1nc(-c2cccc(Cl)c2)c(/C=C/C(=O)Nc2cccc3[nH]c(=O)[nH]c23)s1` [Example 55, (E)-3-(4-(3-chlorophenyl)-2-isopropylthiazol-5-yl)-N-(2-oxo-2,3-dihydro-1H-benzo[d]imidazol-4-yl)acrylamide]: over 0.16 µM; for `CC(C)(C)c1nc(-c2cccc(Cl)c2)c(/C=C/C(=O)Nc2cccc3[nH]c(=O)[nH]c23)s1` [Example 58, (E)-3-(2-(tert-butyl)-4-(3-chlorophenyl)thiazol-5-yl)-N-(2-oxo-2,3-dihydro-1H-benzo[d]imidazol-4-yl)acrylamide]: 0.103 µM.

Take `CC(F)(F)c1cc(C2CC2C(=O)Nc2cccc3[nH]c(=O)[nH]c23)n(-c2cccc(Cl)c2)n1` (stereo not drawn) [Example 64, 2-(1-(3-chlorophenyl)-3-(1,1-difluoroethyl)-1H-pyrazol-5-yl)-N-(2-oxo-2,3-dihydro-1H-benzo[d]imidazol-4-yl)cyclopropane-1-carboxamide]: the IC50 in assay [1] was over 0.16 µM. On the same count and under the same terms, the figure for `CC(C)c1cc(C2CC2C(=O)Nc2cccc3[nH]c(=O)[nH]c23)n(-c2cccc(Cl)c2)n1` (stereo not drawn) [Example 65, 2-(1-(3-chlorophonyl)-3-isopropyl-1H-pyrazol-5-yl)-N-(2-oxo-2,3-dihydro-1H-benzo[d]imidazol-4-yl)cyclopropane-1-carboxamide] is over 0.16 µM. Still for that read-out and setting: the figure for `O=C(Nc1cccc2[nH]c(=O)[nH]c12)C1CC1c1cc(C2CC2)nn1-c1cccc(Cl)c1` (stereo not drawn) [Example 66, 2-(1-(3-chlorophenyl)-3-cyclopropyl-1H-pyrazol-5-yl)-N-(2-oxo-2,3-dihydro-1H-benzo[d]imidazol-4-yl)cyclopropane-1-carboxamide] is over 0.16 µM. The same measure, in the same setting: the figure for `CC1(c2cc(C3CC3C(=O)Nc3cccc4[nH]c(=O)[nH]c34)n(-c3cccc(Cl)c3)n2)CC1` (stereo not drawn) [Example 67, 2-(1-(3-chlorophenyl)-3-(1-methylcyclopropyl)-1H-pyrazol-5-yl)-N-(2-oxo-2,3-dihydro-1H-benzo[d]imidazol-4-yl)cyclopropane-1-carboxamide] is over 0.16 µM; for `CC(C)(C)c1cc(C2CC2C(=O)Nc2cccc3[nH]c(=O)[nH]c23)n(-c2cccc(Cl)c2)n1` (stereo not drawn) [Example 68, 2-(3-(tert-butyl)-1-(3-chlorophenyl)-1H-pyrazol-5-yl)-N-(2-oxo-2,3-dihydro-1H-benzo[d]imidazol-4-yl)cyclopropane-1-carboxamide] it is 0.139 µM.
